Reference: patent US4191763A
Where two headings read alike, the source gives them in different places.

Tests used:
[1] = system: Ascaris lumbricoides var. suum; assay: anthelmintic activity in mice infected with Ascaris, medicated feed; format: in vivo; settings: Example 13, 0.05 percent in diet; control 2.66
Source text: The feeds were utilized as diets for separate groups of mice, five mice per group. About twelve hours after initiation of the feeding, the mice were infected with Ascaris lumbricoides var. summ ova. Another group of five mice was fed the non-medicated feed to serve as a control but was similarly infected at the same time with Ascaris lumbricoides var. suum. All groups were fed their respective feed and maintained under normal laboratory conditions for a period of eight days, at which time all mice were taken off feed. On the ninth day, all mice were sacrificed and the lungs examined to determine the presence, and if present, numbers, of lesions of Ascaris lumbricoides var. suum.
Another evaluation was conducted under the procedures reported in Example 11, except that the rates were varied. The results were as follows:
In a further evaluation, the monoammonium salts of A16886I and A16886II were separately evaluated for the control of Ascaris lumbricoides var. suum. The evaluations were conducted in accordance with the procedure reported in Example 11 at a concentration in the diet of 0.05 percent.

Pseudomonas solanacearum = format: in vivo, tomato plants; settings: scale 0 (no control) to 4 (complete control)
tomato plants = assay: field trial, crop injury; format: in vivo; settings: scale 0 (no injury) to 10 (dead plants)
Experimental: (§1) A mixture of the monoammonium salt of A16886I and the monoammonium salt of A16886II was tested under field conditions for the control of Xanthomonas vesicatoria (bacterial spot) on mature bearing tomato plants. The mixture of the two salts was dispersed in water at a concentration of 100, 200, or 400 parts per million and applied to the plants at the rate of 75 gallons per acre. Application was made with a CO2 sprayer at 50 psi. Plants were sprayed twice, on successive days; after the second spray had dried, all plants were wounded by sand blasting and then within one minute the plants were inoculated with a bacterial inoculum of Xanthomonas vesicatoria. Three days later, a third spray application of the aqueous formulation of A16886 was made. Readings were made one week and two weeks after the last spray treatment. Controls consisted of groups of plants (1) sand blasted and inoculated; (2) sand blasted only; (3) untreated; and (4) treated with streptomycin (on the same three-day spraying schedule, at a concentration of 100, 200, or 400 parts per million of aqueous solution, using a rate of 75 gallons per acre), sand blasted, and inoculated. The results were as set forth in the following table, in which crop injury is reported on a scale of 0-10, with 0=no injury and 10=dead plants; and control of bacterial spot is reported on a percentage basis.

Xanthomonas vesicatoria = assay: field trial, control of bacterial spot on tomato plants; format: in vivo
Experimental: as §1

[2] = First Reading, 100 parts/million
[3] = First Reading, 200 parts/million
[4] = First Reading, 400 parts/million
[5] = Second Reading, 100 parts/million
[6] = Second Reading, 200 parts/million
[7] = Second Reading, 400 parts/million

Question: Which “Average Number of Lung Lesions Per Group” value [1] does the source give for NC(=O)OCC1=C(C(=O)O)N2C(=O)C(NC(=O)CCCC(N)C(=O)O)[C@H]2SC1 (stereo partly drawn) [7-(5-amino-5-carboxyvaleramido)-3-(carbamoyloxymethyl)-3-cephem-4-carboxylic acid] here?
Answer: 0.20

Question: What about the “Disease Rating” value (Pseudomonas solanacearum; Example 7, 10 ppm.) of the same compound?
Answer: 1

Question: What about the “Disease Rating” value (Pseudomonas solanacearum; Example 7, 100 ppm.) of the same compound?
Answer: 4

Question: Which results are given for COC1(NC(=O)CCCC(N)C(=O)O)C(=O)N2C(C(=O)O)=C(COC(N)=O)CS[C@@H]21 (stereo partly drawn) [7-(5-amino-5-carboxyvaleramido)-3-(carbamoyloxymethyl)-7-methoxy-3-cephem-4-carboxylic acid]?
Answer: Average Number of Lung Lesions Per Group [1]: 0.46; Disease Rating (Pseudomonas solanacearum; Example 7, 10 ppm.): 2; Disease Rating (Pseudomonas solanacearum; Example 7, 100 ppm.): 4; rating (Pseudomonas solanacearum; Example 8, 100 ppm.): 4; rating (Pseudomonas solanacearum; Example 8, 200 ppm.): 4; rating (Pseudomonas solanacearum; Example 8, 400 ppm.): 4

Question: With [H]/N=C(/N)N[C@H]1[C@H](O)[C@@H](O)[C@H](O[C@@H]2O[C@@H](C)[C@](O)(C=O)[C@H]2O[C@@H]2O[C@@H](CO)[C@H](O)[C@@H](O)[C@@H]2NC)[C@@H](N/C(N)=N\[H])[C@@H]1O [Streptomycin] as the compound, how does the “Crop Injury Ratings” value (tomato plants; [2]) read?
Answer: 0

Question: And the “Crop Injury Ratings” value (tomato plants; [3])?
Answer: 0

Question: What about the “Crop Injury Ratings” value (tomato plants; [4]) of the same compound?
Answer: 0

Question: What about the “Crop Injury Ratings” value (tomato plants; [5]) of the same compound?
Answer: 0

Question: And the “Crop Injury Ratings” value (tomato plants; [6])?
Answer: 0

Question: What about the “Crop Injury Ratings” value (tomato plants; [7]) of the same compound?
Answer: 0

Question: What about the “Percent Bacterial Spot Control” value (Xanthomonas vesicatoria; [2]) of the same compound?
Answer: 83%

Question: What about the “Percent Bacterial Spot Control” value (Xanthomonas vesicatoria; [3]) of the same compound?
Answer: 81%

Question: What about the “Percent Bacterial Spot Control” value (Xanthomonas vesicatoria; [4]) of the same compound?
Answer: 83%

Question: And the “Percent Bacterial Spot Control” value (Xanthomonas vesicatoria; [5])?
Answer: 57%

Question: And the “Percent Bacterial Spot Control” value (Xanthomonas vesicatoria; [6])?
Answer: 37%

Question: And the “Percent Bacterial Spot Control” value (Xanthomonas vesicatoria; [7])?
Answer: 59%
